Peptide text beside a SMILES is read from it. * marks the point of attachment. X1 = CCCCCCCCCCCCCCCC(=O)OCC(C*)OC(=O)CCCCCCCCCCCCCCC; Palmitoyl = CCCCCCCCCCCCCCCC(=O)*
What was measured:
Assay type in all cases: cell-based
human TLR2 [1] = target: T1, human TLR2 (Homo sapiens, UniProt O60603); test: NF-κB reporter assay in HEK293 cells transfected with human TLR2 only (+CD14); conditions: 20 ng/mL ligand, human TLR2 + human CD14, endogenous TLR1/6
Experimental: HEK293 cells were seeded at a density of 3 × 10^4 cells per well of a 96 well plate and transiently transfected 48 h later using JetPEI (Polyplus). For transfection, expression vectors containing cDNA encoding human TLR2, -1 and -6, and CD14, were mixed as appropriate. TLR cDNA-containing and CD14 cDNA-containing vectors were used at 1 ng/well. TLR constructs were replaced as appropriate with empty vector (pcDNA3) to balance the total added DNA amounts. pNF-κB-luc (10 ng/well) and ph-RG-TK (5 ng/well) were added to receptor mixtures, together with 10× TE and 150 mM NaCl to give a total volume of 50 μL per 10 wells. Following mixing of DNA, and per 10 wells, 2 μL JetPEI was added to 48 μL 150 mM NaCl. JetPEI/NaCl was added to the DNA mixtures at a 1:1 ratio and incubated for 30 min at room temperature. Following incubation, transfection mixtures were diluted to 1 mL per 10 wells in complete HEK medium. Old medium was removed from plated cells and replaced with the transfection/complete medium mixtures. […] Cells were stimulated for six hours, lysed using diluted PLB, and NF-κB activation measured by the dual luciferase reporter assay (Promega).
(§1) Supplementary file 1297-9716-44-50-S1.pdf: Additional file 1 Expression of TLRs and responses to synthetic ligands of SW620 and HEK293 cells. […] (A) After 25 PCR cycles, TLR4 was detected in SW620, and TLR1 was detected in HEK293. […]

equine TLR2/6 = test: NF-κB dual luciferase reporter assay in SW620 cells transfected with equine TLR2+TLR6+CD14
Experimental: (§2) SW620 cells (a gift from Richard Tapping, USA) were utilised for TLR2/1 and TLR2/6 transient transfection experiments, as, unlike HEK293 cells, they are 1) deficient in significant expression of all three receptors, and 2) poorly responsive to Pam2CSK4 and Pam3CSK4 without exogenously added TLRs (Additional file 1). […] SW620 cells were seeded at 3.75 × 10^4 cells per well of a 48 well plate and transiently transfected 24 hours later using Fugene 6 (Promega) at a ratio of 1 μg DNA: 4 μL Fugene 6. For transfection, expression vectors containing cDNA encoding human (in pFLAG-CMV) or equine (in pcDNA3) TLR2, -1 and -6, and CD14 (in pcDNA3), were mixed as appropriate. TLR cDNA-containing vectors were used at 2.5 ng/well; CD14 cDNA-containing vectors were used at 1.25 ng/well. […] Cells were stimulated for six hours, lysed using diluted passive lysis buffer (PLB; Promega), and NF-κB activation measured by the dual luciferase reporter assay (Promega). […]
(§3) SW620 cells were transiently transfected with reporter constructs and one of four receptor combinations: human TLR2+TLR1+CD14, human TLR2+TLR6+CD14, equine TLR2+TLR1+CD14 or equine TLR2+TLR6+CD14, and stimulated with increasing doses of ligand. EC50 and maximum stimulation values were determined at each heterodimer as measures of ligand potency and efficacy respectively.

equine TLR2/1 = test: NF-κB dual luciferase reporter assay in SW620 cells transfected with equine TLR2+TLR1+CD14; conditions: for EC50: SW620 cells, equine TLR2+TLR1+CD14, 6 h stimulation, NF-κB luciferase, normalised curves
Experimental: as §2, with “ng/well. TLR constructs were replaced with empty vector (pcDNA3), as appropriate, to balance total added DNA amounts. Reporter constructs pNF-κB-luc (Clontech; 25 ng/well) and ph-RG-TK (Promega; 12.5 ng/well), encoding firefly luciferase under an NF-κB promoter and constitutively expressed Renilla luciferase respectively, were then added to all receptor mixtures, together with 10× Tris-EDTA (TE). Following mixing of DNA, and per 4 wells, 0.7 μL Fugene 6 was diluted to 10 μL in serum- and antibiotic-free RPMI and incubated for 5 min. DNA mixtures were then added to the Fugene 6/RPMI mixtures and incubated for 30 min at room temperature. Following incubation, transfection mixtures were diluted to 1 mL per 4 wells in complete SW620 medium.” for “ng/well.”
as §3

human TLR2/1 = target: T2, human TLR2/1 (Homo sapiens, UniProt O60603+Q15399); test: NF-κB dual luciferase reporter assay in SW620 cells transfected with human TLR2+TLR1+CD14; conditions: human TLR2+TLR1+CD14, 6 h stimulation, normalised curves
T2 construct: FLAG (from vector pFLAG-CMV); expressed in transfected cells; host or cells: SW620 (human)
Experimental: as §2, §3

human TLR2 [2] = target: T1, human TLR2; test: NF-κB reporter assay in SW620 cells transfected with human TLR2 only (+CD14); design: FLAG (from vector pFLAG-CMV); expressed in transfected cells; host or cells: SW620 (human); conditions: 20 ng/mL ligand
Experimental: SW620 cells (a gift from Richard Tapping, USA) were utilised for TLR2/1 and TLR2/6 transient transfection experiments, as, unlike HEK293 cells, they are 1) deficient in significant expression of all three receptors, and 2) poorly responsive to Pam2CSK4 and Pam3CSK4 without exogenously added TLRs (Additional file 1). […] SW620 cells were seeded at 3.75 × 10^4 cells per well of a 48 well plate and transiently transfected 24 hours later using Fugene 6 (Promega) at a ratio of 1 μg DNA: 4 μL Fugene 6. For transfection, expression vectors containing cDNA encoding human (in pFLAG-CMV) or equine (in pcDNA3) TLR2, -1 and -6, and CD14 (in pcDNA3), were mixed as appropriate. TLR cDNA-containing vectors were used at 2.5 ng/well; CD14 cDNA-containing vectors were used at 1.25 ng/well. TLR constructs were replaced with empty vector (pcDNA3), as appropriate, to balance total added DNA amounts. […] Cells were stimulated for six hours, lysed using diluted passive lysis buffer (PLB; Promega), and NF-κB activation measured by the dual luciferase reporter assay (Promega).
as §1

human TLR2/6 = target: T3, human TLR2/6 (Homo sapiens, UniProt O60603+Q9Y2C9); test: NF-κB dual luciferase reporter assay in SW620 cells transfected with human TLR2+TLR6+CD14
T3 construct: FLAG (from vector pFLAG-CMV); expressed in transfected cells; host or cells: SW620 (human)
Experimental: as §2, §3

T1 sequence (O60603 21-784): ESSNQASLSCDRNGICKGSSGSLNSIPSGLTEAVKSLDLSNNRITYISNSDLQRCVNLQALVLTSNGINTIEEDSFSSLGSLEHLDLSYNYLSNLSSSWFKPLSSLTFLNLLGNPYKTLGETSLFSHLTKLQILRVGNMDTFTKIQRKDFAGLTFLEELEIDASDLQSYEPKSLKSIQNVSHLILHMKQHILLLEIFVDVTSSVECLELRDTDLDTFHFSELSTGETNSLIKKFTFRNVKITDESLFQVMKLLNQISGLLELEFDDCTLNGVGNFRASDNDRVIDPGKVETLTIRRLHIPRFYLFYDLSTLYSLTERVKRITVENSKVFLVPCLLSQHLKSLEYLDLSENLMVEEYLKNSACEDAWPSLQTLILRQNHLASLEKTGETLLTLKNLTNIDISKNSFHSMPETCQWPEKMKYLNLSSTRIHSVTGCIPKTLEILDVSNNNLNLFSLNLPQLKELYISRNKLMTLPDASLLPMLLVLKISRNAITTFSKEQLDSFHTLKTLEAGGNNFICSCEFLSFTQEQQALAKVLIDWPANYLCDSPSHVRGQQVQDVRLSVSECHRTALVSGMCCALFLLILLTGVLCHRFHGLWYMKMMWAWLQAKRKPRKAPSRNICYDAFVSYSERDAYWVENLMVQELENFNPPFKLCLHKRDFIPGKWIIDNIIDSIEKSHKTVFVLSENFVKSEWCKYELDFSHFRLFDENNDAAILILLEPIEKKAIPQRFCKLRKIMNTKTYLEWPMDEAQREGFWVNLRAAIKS
T3 sequence (O60603 21-784): as above
T3 sequence (Q9Y2C9 32-796): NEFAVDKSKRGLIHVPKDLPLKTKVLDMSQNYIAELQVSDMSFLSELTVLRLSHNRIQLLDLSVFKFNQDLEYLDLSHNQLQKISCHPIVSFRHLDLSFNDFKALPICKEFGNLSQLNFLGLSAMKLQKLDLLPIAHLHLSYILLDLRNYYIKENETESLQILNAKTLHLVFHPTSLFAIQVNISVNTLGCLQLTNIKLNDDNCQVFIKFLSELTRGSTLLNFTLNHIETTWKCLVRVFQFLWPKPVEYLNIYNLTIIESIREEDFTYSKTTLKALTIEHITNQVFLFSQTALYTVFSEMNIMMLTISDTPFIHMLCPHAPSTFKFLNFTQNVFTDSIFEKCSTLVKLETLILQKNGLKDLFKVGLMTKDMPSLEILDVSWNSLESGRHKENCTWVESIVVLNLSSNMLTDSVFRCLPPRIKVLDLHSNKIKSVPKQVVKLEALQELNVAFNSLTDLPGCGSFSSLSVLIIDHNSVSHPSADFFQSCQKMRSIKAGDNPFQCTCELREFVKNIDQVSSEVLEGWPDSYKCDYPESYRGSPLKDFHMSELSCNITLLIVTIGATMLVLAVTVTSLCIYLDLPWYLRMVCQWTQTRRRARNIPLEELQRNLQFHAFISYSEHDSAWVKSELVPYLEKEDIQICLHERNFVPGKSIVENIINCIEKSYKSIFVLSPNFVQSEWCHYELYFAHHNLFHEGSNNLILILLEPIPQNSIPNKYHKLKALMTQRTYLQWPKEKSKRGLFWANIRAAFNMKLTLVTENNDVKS
T2 sequence (O60603 21-784): as the sequence (O60603 21-784) above
T2 sequence (Q15399 25-786): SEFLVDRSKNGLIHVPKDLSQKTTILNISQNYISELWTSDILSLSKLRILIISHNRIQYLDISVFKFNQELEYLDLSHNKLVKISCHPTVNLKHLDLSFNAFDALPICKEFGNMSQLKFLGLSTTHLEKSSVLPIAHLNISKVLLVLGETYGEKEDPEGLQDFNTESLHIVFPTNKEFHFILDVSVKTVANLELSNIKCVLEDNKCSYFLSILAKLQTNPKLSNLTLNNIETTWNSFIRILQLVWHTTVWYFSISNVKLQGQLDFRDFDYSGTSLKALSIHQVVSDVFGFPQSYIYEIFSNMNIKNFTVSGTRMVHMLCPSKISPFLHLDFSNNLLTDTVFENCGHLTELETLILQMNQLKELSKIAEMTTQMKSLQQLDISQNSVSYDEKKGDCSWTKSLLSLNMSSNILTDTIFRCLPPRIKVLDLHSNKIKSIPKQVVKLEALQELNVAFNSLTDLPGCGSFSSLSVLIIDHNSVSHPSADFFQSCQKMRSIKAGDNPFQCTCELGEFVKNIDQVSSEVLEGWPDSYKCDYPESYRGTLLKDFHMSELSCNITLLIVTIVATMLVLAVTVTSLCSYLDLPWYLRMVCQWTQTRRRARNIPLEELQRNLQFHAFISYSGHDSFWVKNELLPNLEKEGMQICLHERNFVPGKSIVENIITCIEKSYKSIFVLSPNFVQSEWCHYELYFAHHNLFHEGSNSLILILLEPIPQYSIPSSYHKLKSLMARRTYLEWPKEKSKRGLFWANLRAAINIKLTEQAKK

Row | Structure (SMILES) | NF-κB response of HEK293 with exogenous TLR2 only (human TLR2 [1]) | stimulation of equine TLR2/6 (equine TLR2/6; data not shown) | EC50 (equine TLR2/1) [ng/mL] | EC50 (human TLR2/1) [nM] | NF-κB response of SW620 with exogenous TLR2 only (human TLR2 [2]) | stimulation of human TLR2/6 (human TLR2/6; data not shown) | EC50 (equine TLR2/6; equine TLR2+TLR6+CD14, 6 h stimulation, NF-κB luciferase, normalised curves) [ng/mL] | potency at equine TLR2/1 relative to human TLR2/1 (equine TLR2/1; more potent at equine TLR2/1 than at human TLR2/1) [fold] | EC50 (human TLR2/6; human TLR2+TLR6+CD14, 6 h stimulation, NF-κB luciferase, normalised curves) [nM]
1 | CCCCCCCCCCCCCCCC(=O)N[C@@H](CSCC(COC(=O)CCCCCCCCCCCCCCC)OC(=O)CCCCCCCCCCCCCCC)C(=O)N[C@@H](CO)C(=O)N[C@@H](CCCCN)C(=O)N[C@@H](CCCCN)C(=O)N[C@@H](CCCCN)C(=O)N[C@@H](CCCCN)C(=O)O (stereo partly shown) [Pam3CSK4] (Palmitoyl-C(X1)SKKKK-OH; C-terminus assumed) | respond to both ligands | failed to stimulate | 18.73 | 0.311 | not | failed to stimulate | – | – | –
2 | CCCCCCCCCCCCCCCC(=O)OCC(CSC[C@H](N)C(=O)N[C@@H](CO)C(=O)N[C@@H](CCCCN)C(=O)N[C@@H](CCCCN)C(=O)N[C@@H](CCCCN)C(=O)N[C@@H](CCCCN)C(=O)O)OC(=O)CCCCCCCCCCCCCCC (stereo partly shown) [Pam2CSK4] (H-C(X1)SKKKK-OH; N-terminus and C-terminus assumed) | respond to both ligands | – | 0.43 | 3.31 | respond weakly | – | 0.010 | 10 | 0.0118

Source: article PMC3716717, “The molecular basis for recognition of bacterial ligands at equine TLR2, TLR1 and TLR6” (Veterinary Research, 2013)
